Results as given in patent US8119569B2, “Benzoylpyrazole compounds, process for their production and herbicides containing them” (Ishihara Sangyo Kaisha, Ltd., priority 2006, dated 2012).

How the values were obtained:
Assay type in all cases: in vivo
[1] = test system: Japanese ribbon waparo (Sagittaria pygmaea); experiment: Test Example 4: paddy field pot, water application; conditions: 63 g/ha, 14th day after application
Excerpt: (§1) Paddy field soil was put into a 1/1,000,000 hectare pot, and seeds of barnyardgrass (Echinochloa oryzicola vasing.) and Japanese bulrush (Scirpus juncoides) were sown and lightly covered with soil. Then, pot was left to stand in a greenhouse in a state irrigated to a water depth of from 0.5 to 1 cm, and next day or two days later, tubers of Japanese ribbon waparo (Sagittaria pygmaea) were planted. Then, the irrigated water depth was maintained to be from 3 to 4 cm, and when barnyardgrass and Japanese bulrush reached 0.5 leaf stage, and Japanese ribbon waparo reached primary leaf stage, a water diluted solution of a wettable powder or an emulsifieable concentrate of the compound of the present invention prepared in accordance with a conventional preparation method, was uniformly dropwise applied by a pipette so that the amount of active ingredients would be a prescribed amount. Further, paddy field soil was put into a 1/1,000,000 pot, followed by soil puddling to an irrigated water depth of from 3 to 4 cm. Next day, rice (Oryza sativa L.) (var.: Nihonbare) of two leaf stage was transplanted in a transplantation depth of 3 cm. On the 4th day after transplantation, the compound of the present invention was applied in the same manner as described above.

[2] = test system: Japanese bulrush (Scirpus juncoides); experiment: Test Example 4: paddy field pot, water application; conditions: 63 g/ha, 14th day after application
Excerpt: as §1

[3] = test system: barnyardgrass (Echinochloa oryzicola vasing.); experiment: Test Example 4: paddy field pot, water application; conditions: 63 g/ha, 14th day after application
Excerpt: as §1

[4] = test system: rice (Oryza sativa L.) (var.: Nihonbare); experiment: Test Example 4: paddy field pot, water application, transplanted rice; conditions: 63 g/ha, 21st day after application, crop
Excerpt: as §1

[5] = test system: velvetleaf (Abutilon theophrasti MEDIC.); experiment: Test Example 2: soil application on the day after sowing; conditions: 250 g/ha, 19th to 22nd day after application
Excerpt: (§2) Upland field soil was put into a 1/170,000 hectare pot, and seeds of various plants (barnyardgrass (Echinochloa crus-galli L.), crabgrass (Digitaria sanguinalis L.), green foxtail (Setaria viridis L.), redroot pigweed (Amaranthus retroflexus L.), prickly sida (Sida spinosa L.), velvetleaf (Abutilon theophrasti MEDIC.), rice (oryza sativa L.), corn (Zea mays L.) and soybean (Glycine max Merr.)) were sown. On the day after sowing, wettable powders or emulsifiable concentrates of the compounds of the present invention prepared in accordance with a conventional preparation method, were weighed so that the active ingredients became the prescribed amounts, and diluted with water in an amount corresponding to 500 liter per 1 hectare, followed by soil application with a small sprayer.

[6] = test system: redroot pigweed (Amaranthus retroflexus L.); experiment: as above; conditions: 250 g/ha, 19th to 22nd day after application
Excerpt: as §2

corn (Zea mays L.) [7] = experiment: as above; conditions: 250 g/ha, 19th to 22nd day after application, crop
Excerpt: as §2

[8] = test system: green foxtail (Setaria viridis L.); experiment: as above; conditions: 250 g/ha, 19th to 22nd day after application
Excerpt: as §2

[9] = test system: crabgrass (Digitaria sanguinalis L.); experiment: as above; conditions: 250 g/ha, 19th to 22nd day after application
Excerpt: as §2

[10] = test system: soybean (Glycine max Merr.); experiment: as above; conditions: 250 g/ha, 19th to 22nd day after application, crop
Excerpt: as §2

[11] = test system: barnyardgrass (Echinochloa crus-galli L.); experiment: as above; conditions: 250 g/ha, 19th to 22nd day after application
Excerpt: as §2

[12] = test system: prickly sida (Sida spinosa L.); experiment: as above; conditions: 250 g/ha, 19th to 22nd day after application
Excerpt: as §2

rice (Oryza sativa L.) [13] = experiment: as above; conditions: 250 g/ha, 19th to 22nd day after application, crop
Excerpt: as §2

[14] = test system: velvetleaf (Abutilon theophrasti MEDIC.); experiment: Test Example 1: foliar treatment, upland pot; conditions: 21st day after application
Excerpt: Upland field soil was put into a 1/170,000 hectare pot, and seeds of various plants were sown. […] The spray solutions thus prepared were applied for foliar treatment by a small sprayer.

[15] = test system: redroot pigweed (Amaranthus retroflexus L.); experiment: Test Example 1: foliar treatment, upland pot; conditions: 21st day after application
Excerpt: (§3) Upland field soil was put into a 1/170,000 hectare pot, and seeds of various plants were sown. When the respective plants reached predetermined leaf stage ((1) barnyardgrass (Echinochloa crus-galli L.): 1.0 to 3.3 leaf stage, (2) crabgrass (Digitaria sanguinalis L.): 1.2 to 3.0 leaf stage, (3) green foxtail (Setaria viridis L.): 1.5 to 3.3 leaf stage, (4) redroot pigweed (Amaranthus retroflexus L.): 0.1 to 2.0 leaf stage, (5) prickly sida (Sida spinosa L.): cotyledon stage to 2.0 leaf stage, (6) velvetleaf (Abutilon theophrasti MEDIC.): 0.1 to 2.0 leaf stage, (7) rice (Oryza sativa L.): 1.3 to 3.0 leaf stage, (8) corn (Zea mays L.): 2.5 to 3.4 leaf stage, and (9) soybean (Glycine max Merr.): primary leaf stage to 0.3 leaf stage), wettable powders or emulsifiable concentrates of the compounds of the present invention prepared in accordance with a conventional preparation method, were weighed so that the active ingredients became the prescribed amounts, and diluted with water in an amount corresponding to 500 liter per 1 hectare (containing 0.1 vol % of an agricultural spreader (“KUSARINOH”, manufactured by NIHON NOHYAKU CO., LTD.)). The spray solutions thus prepared were applied for foliar treatment by a small sprayer.

corn (Zea mays L.) [16] = experiment: Test Example 1: foliar treatment, upland pot; conditions: 21st day after application, crop
Excerpt: as §3

[17] = test system: green foxtail (Setaria viridis L.); experiment: Test Example 1: foliar treatment, upland pot; conditions: 21st day after application
Excerpt: as §3

[18] = test system: crabgrass (Digitaria sanguinalis L.); experiment: Test Example 1: foliar treatment, upland pot; conditions: 21st day after application
Excerpt: as §3

[19] = test system: soybean (Glycine max Merr.); experiment: Test Example 1: foliar treatment, upland pot; conditions: 21st day after application, crop
Excerpt: as §3

[20] = test system: barnyardgrass (Echinochloa crus-galli L.); experiment: Test Example 1: foliar treatment, upland pot; conditions: 21st day after application
Excerpt: as §3

[21] = test system: prickly sida (Sida spinosa L.); experiment: Test Example 1: foliar treatment, upland pot; conditions: 21st day after application
Excerpt: as §3

rice (Oryza sativa L.) [22] = experiment: Test Example 1: foliar treatment, upland pot; conditions: 21st day after application, crop
Excerpt: as §3

[23] = test system: velvetleaf (Abutilon theophrasti MEDIC.); experiment: Test Example 3: foliar treatment, comparison with reference compounds; conditions: 3.3 to 4.3 leaf stage; for inhibition at 15 g/ha: Abutilon theophrasti, 22nd day after application, read-out: Growth inhibition rate (%) (22nd day after application) Velvet leaf
Excerpt: (§4) Upland field soil was put into a 1/1,000,000 hectare pot, and seeds of various plants were sown. […] The spray solutions thus prepared were applied for foliar treatment by a small sprayer.

[24] = test system: guineagrass (Panicum maximum Jacq.); experiment: as above; conditions: 3.5 to 4.3 leaf stage; for inhibition at 3.5 g/ha: Megathyrsus maximus, 18th day after application, read-out: Growth inhibition rate (%) (18th day after application) Guineagrass
Excerpt: as §4

corn (Zea mays L.) [25] = experiment: as above; conditions: 4.0 to 4.3 leaf stage, crop
Excerpt: as §4

[26] = test system: green foxtail (Setaria viridis L.); experiment: as above; conditions: 4.0 to 4.5 leaf stage; for inhibition at 3.5 g/ha / inhibition at 7 g/ha: Setaria viridis, 17th day after application, read-out: Growth inhibition rate (%) (17th day after application) Green foxtail
Excerpt: as §4

SMILES	Growth inhibition rate (%) Japanese ribbon waparo [1] [%]	Growth inhibition rate (%) Japanese bulrush [2] [%]	Growth inhibition rate (%) Barnyardgrass [3] [%]	Growth inhibition rate (%) Rice [4] [%]	Growth inhibition rate (%) Velvetleaf [5] [%]	Growth inhibition rate (%) Redroot pigweed [6] [%]	Growth inhibition rate (%) Corn (corn (Zea mays L.) [7]) [%]	Growth inhibition rate (%) Green foxtail [8] [%]	Growth inhibition rate (%) Crabgrass [9] [%]	Growth inhibition rate (%) Soybean [10] [%]	Growth inhibition rate (%) Barnyardgrass [11] [%]	Growth inhibition rate (%) Prickly sida [12] [%]	Growth inhibition rate (%) Rice (rice (Oryza sativa L.) [13]) [%]	Growth inhibition rate (%) Redroot pigweed ([15]; 7 g/ha) [%]	Growth inhibition rate (%) Corn (corn (Zea mays L.) [16]; 7 g/ha) [%]	Growth inhibition rate (%) Green foxtail ([17]; 7 g/ha) [%]	Growth inhibition rate (%) Crabgrass ([18]; 7 g/ha) [%]	Growth inhibition rate (%) Soybean ([19]; 7 g/ha) [%]	Growth inhibition rate (%) Barnyardgrass ([20]; 7 g/ha) [%]	Growth inhibition rate (%) Prickly sida ([21]; 7 g/ha) [%]	other results
CCOC(=O)OC(C)Oc1c(C(=O)c2ccc(S(C)(=O)=O)c(OCCOC)c2C)c(C)nn1C (racemic) [compound 11]	60	100	98	60	70	100	0	100	100	20	100	40	100	80	0	90	90	70	90	10	Growth inhibition rate (%) Velvetleaf ([14]; 7 g/ha): 60%; Growth inhibition rate (%) Rice (rice (Oryza sativa L.) [22]; 7 g/ha): 80%
CCCOC(=O)OC(C)Oc1c(C(=O)c2ccc(S(C)(=O)=O)c(OCCOC)c2C)cnn1C (racemic) [compound 19]	95	95	100	20	98	100	0	100	100	40	100	60	100	95	0	100	90	80	95	30	Growth inhibition rate (%) Velvetleaf ([14]; 7 g/ha): 95%; Growth inhibition rate (%) Rice (rice (Oryza sativa L.) [22]; 7 g/ha): 80%
CCOC(=O)OC(C)Oc1c(C(=O)c2ccc(S(C)(=O)=O)c(OCCOC)c2C)cnn1C (stereo not shown) [Compound No. 2, 1-(4-(3-(2-methoxyethoxy)-2-methyl-4-(methylsulfonyl)benzoyl)-1-methyl-1H-pyrazol-5-yloxy)ethyl ethylcarbonate]	95	60	100	50	60	100	0	100	100	0	100	70	98	100	0	95	95	80	100	40	Growth inhibition rate (%) Velvetleaf ([14]; 63 g/ha): 100%; Growth inhibition rate (%) (22nd day after application) Velvet leaf ([23]; 15 g/ha): 94%; Growth inhibition rate (%) (18th day after application) Guineagrass ([24]; 3.5 g/ha): 90%; Growth inhibition rate (%) (21st day after application) Corn (corn (Zea mays L.) [25]; 120 g/ha): 4%; Growth inhibition rate (%) (17th day after application) Green foxtail ([26]; 3.5 g/ha): 93%; Growth inhibition rate (%) (17th day after application) Green foxtail ([26]; 7 g/ha): 98%; Growth inhibition rate (%) Redroot pigweed ([15]; 63 g/ha): 100%; Growth inhibition rate (%) Corn (corn (Zea mays L.) [16]; 63 g/ha): 0%; Growth inhibition rate (%) Green foxtail ([17]; 63 g/ha): 100%; Growth inhibition rate (%) Crabgrass ([18]; 63 g/ha): 100%; Growth inhibition rate (%) Soybean ([19]; 63 g/ha): 98%; Growth inhibition rate (%) Barnyardgrass ([20]; 63 g/ha): 100%; Growth inhibition rate (%) Prickly sida ([21]; 63 g/ha): 85%; Growth inhibition rate (%) Rice (rice (Oryza sativa L.) [22]; 7 g/ha): 80%; Growth inhibition rate (%) Rice (rice (Oryza sativa L.) [22]; 63 g/ha): 70%
CCn1ncc(C(=O)c2ccc(S(C)(=O)=O)c(OCCOC)c2Cl)c1O [Reference Compound 1]	–	–	–	–	–	–	–	–	–	–	–	–	–	–	–	–	–	–	–	–	inhibition at 15 g/ha [23]: 20%; inhibition at 3.5 g/ha [24]: 0%; inhibition at 3.5 g/ha ([26]; 3.5 g/ha): 35%; inhibition at 7 g/ha ([26]; 7 g/ha): 55%
COCCOc1c(S(C)(=O)=O)ccc(C(=O)c2cnn(C(C)C)c2O)c1Cl [Reference Compound 2]	–	–	–	–	–	–	–	–	–	–	–	–	–	–	–	–	–	–	–	–	inhibition at 15 g/ha [23]: 40%; inhibition at 3.5 g/ha [24]: 0%; inhibition at 120 g/ha (corn (Zea mays L.) [25]; Zea mays, 21st day after application, read-out: Growth inhibition rate (%) (21st day after application) Corn): 28%; inhibition at 3.5 g/ha ([26]; 3.5 g/ha): 30%; inhibition at 7 g/ha ([26]; 7 g/ha): 45%
